These results are taken from patent publication US9776991B2, “Thienomethylpiperazine derivatives as inhibitors of soluble epoxide hydrolase” (SANOFI, priority 2013, dated 2017).

A word on the IC50: it is the concentration that gives 50% inhibition.

Each structure is given as a SMILES string. Where a name gives a salt, the structure may show the parent alone.

Sequence of recombinant sEH (soluble epoxide hydrolase, EPHX2) (P34913 whole entry): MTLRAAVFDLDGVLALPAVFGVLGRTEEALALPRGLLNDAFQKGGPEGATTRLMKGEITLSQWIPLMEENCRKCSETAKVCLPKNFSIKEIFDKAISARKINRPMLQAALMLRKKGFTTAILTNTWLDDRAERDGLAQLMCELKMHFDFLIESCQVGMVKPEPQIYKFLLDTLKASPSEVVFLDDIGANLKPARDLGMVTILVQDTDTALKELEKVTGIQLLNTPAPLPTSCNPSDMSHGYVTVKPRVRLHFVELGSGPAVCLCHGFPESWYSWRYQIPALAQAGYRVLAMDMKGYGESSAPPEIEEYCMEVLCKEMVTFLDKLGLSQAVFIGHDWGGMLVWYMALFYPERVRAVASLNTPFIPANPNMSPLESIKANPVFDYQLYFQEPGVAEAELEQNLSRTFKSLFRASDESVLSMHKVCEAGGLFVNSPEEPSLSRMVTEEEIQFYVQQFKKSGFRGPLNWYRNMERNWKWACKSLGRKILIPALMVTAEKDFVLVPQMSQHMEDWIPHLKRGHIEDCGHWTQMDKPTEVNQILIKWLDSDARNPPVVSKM

This assay concerns the target recombinant sEH (soluble epoxide hydrolase, EPHX2) (Homo sapiens (Human), UniProt P34913). The assay can be described thus: biochemical fluorometric sEH inhibition assay with Phome substrate. As to conditions: recombinant sEH purified from Sf9 insect cells, 2 nM sEH, 5 μM Phome, 60 minutes at 30° C. The method, then: Compounds were tested in a biochemical screening assay using recombinant sEH purified from Sf9 insect cells and an artificial substrate, (3-phenyl-oxiranyl)-acetic acid cyano-(6-methoxy-naphtalen-2-yl)-methyl ester, Phome. The biochemical assay was performed in analogy to a fluorometric described in the literature (P. D. Jones et al., Anal. Biochem. 2005, 343, 66-75). The assay principle bases on the sEH-catalyzed hydrolysis of an artificial α-cyano-ester substrate. O-deacetylation liberates a cyanohydrin intermediate that rapidly decomposes to the highly fluorescent 6-methoxy-2-naphtaldehyde. To discriminate sample autofluorescence, the assay was carried out as a kinetic measurement with two time points. The first measurement is performed immediately before addition of the substrate and the […] measurement is done after completion of the assay. The assay format is either in 96- or in 384-well format.
Details of the assay using a 96-well plate format are described below. 40 μl recombinant sEH enzyme and 5 μl test compound are pre-incubated for 15 minutes at 30° C. Following pre-incubation, the reaction is started by addition of 5 μl Phome. The assay mixture containing 2 nM final sEH concentration, test compound ranging in a concentration from 0.0001-10 μM and 5 μM Phome is incubated for 60 minutes at 30° C.
Fluorescence is measured with any suitable detector for instance a TECAN Safire or Tecan Ultra at […]. % inhibition of recombinant sEH activity is used for calculation of corresponding IC50 values as illustrated and described in the examples.
The NCBI gene bank reference sequence with the accession number NM_001979 for EPHX2/sEH was applied for recombinant protein production:
The following commercially available materials have been used: • Incubation reagent: 25 mM Hepes (Sigma-Aldrich, Cat. No H-3375), 0.01% bovine albumin (Sigma-Aldrich Cat. No PA9205) • Substrate: 3-Phenyl-oxiranyl)-acetic acid cyano-(6-methoxy-naphtalen-2-yl)-methyl ester, Phome (Biozol Cat. No 10003134) • Microtiter plates: 96-well plates (Greiner Cat. No 655180; Costar Cat. No 3915)
Regarding `CC(C)CCNC(=O)c1ccc(CN2CCN(C(=O)c3ccnn3C(F)F)CC2)s1` [Example 13], the IC50 is 2.98 nM.
Take `O=C(NCc1ccccc1OC(F)(F)F)c1ccc(CN2CCN(C3CCCC3)C(=O)C2)s1` [Example 38]: the IC50 came to 0.803 nM.
Consider `CC(C(=O)N1CCN(Cc2ccc(C(=O)NCc3ccccc3C(F)(F)F)s2)CC1)c1ccccc1` (centres unmarked) [Example 98], for which the IC50 came to 1.52 nM.
In the case of `CC1(C)C(=O)NCCN1Cc1ccc(C(=O)NCc2ccccc2OC(F)(F)F)s1` [Example 62], the IC50 turned out to be 1.14 nM.
`NC1(C(=O)N2CCN(Cc3ccc(C(=O)NCc4ccccc4OC(F)(F)F)s3)CC2)CC1` [Example 115, 5-[4-(1-Amino-cyclopropanecarbonyl)-piperazin-1-ylmethyl]-thiophene-2-carboxylic acid 2-trifluoromethoxy-benzylamide, trifluoroacetate]: the IC50 worked out at 1.64 nM.
Regarding `CN1CC(C(=O)N2CCN(Cc3ccc(C(=O)NCc4ccccc4OC(F)(F)F)s3)CC2)CC1=O` (centres unmarked) [Example 44], the concentration for half-maximal inhibition (IC50) was 2.72 nM.
As for `O=C(NCc1ccc(Cl)cc1Cl)c1cnc(CN2CCN(C(=O)C3CCC(O)C3)CC2)s1` (centres unmarked) [Example 209], the IC50 is 3.49 nM.
For `O=C(NCc1ccc(Cl)cc1Cl)c1cnc(CN2CCN(C(=O)CCO)CC2)s1` [Example 163], the half-maximal inhibitory concentration (IC50) turned out to be 25.2 nM.
Regarding `COc1cc(CNC(=O)c2ccc(CN3CCN(C(=O)c4c(C)n[nH]c4C)CC3)s2)ccn1` [Example 139, 5-[4-(3,5-Dimethyl-1H-pyrazole-4-carbonyl)-piperazin-1-ylmethyl]-thiophene-2-carboxylic acid (2-methoxy-pyridin-4-ylmethyl)-amide trifluoroacetate], the IC50 is 2.85 nM.
The figure for `O=C(NCc1ccc(Cl)cc1Cl)c1cnc(CN2CCN(C(=O)C3CCO3)CC2)s1` (centres unmarked) [Example 208] is 9.67 nM; for `O=C(NCc1ccc(Cl)cc1Cl)c1ccc(CN2CCN(C(=O)c3ccccc3F)CC2)s1` [Example 131] it is 2.13 nM; for `CC[C@H](O)C(=O)N1CCN(Cc2ncc(C(=O)NCc3ccc(Cl)cc3Cl)s2)CC1` [Example 191] it is 14 nM.
Turning to `CO[C@H](C)C(=O)N1CCN(Cc2ncc(C(=O)NCc3ccc(Cl)cc3Cl)s2)CC1` [Example 204], the IC50 is 18.8 nM.
As for `CN[C@H](C(=O)N1CCN(Cc2ccc(C(=O)NCc3ccccc3OC(F)(F)F)s2)CC1)[C@@H](C)O` [Example 41], the 50% inhibitory concentration (IC50) amounted to 2.75 nM.
The figure for `O=C(NCc1ccccc1C(F)(F)F)c1ccc(CN2CCN(C(=O)Cc3cccc(C(F)(F)F)c3)CC2)s1` [Example 31] is 0.758 nM; for `O=C(NCc1ccc(Cl)cc1Cl)c1ccc(CN2CCN(C(=O)c3ccccn3)CC2)s1` [Example 77] it is 2.49 nM.
The figure for `N#CCC(=O)N1CCN(Cc2ncc(C(=O)NCc3ccc(Cl)cc3Cl)s2)CC1` [Example 195] is 73.6 nM.
For `CC1(C)CC[C@@H](C(=O)N2CCN(Cc3ccc(C(=O)NCc4ccccc4OC(F)(F)F)s3)CC2)N1` [Example 86], the IC50 is 2.38 nM.
`C[C@@H](O)C(=O)N1CCN(Cc2ccc(C(=O)N(Cc3ccccc3)OC(F)(F)F)s2)CC1` [Example 1]: the concentration for half-maximal inhibition (IC50) was 0.122 nM.
In the case of `COCc1cc(O)nc(N2CCN(Cc3ccc(C(=O)NCc4ccccc4OC(F)(F)F)s3)CC2)n1` [Example 158], the IC50 came out at 2.04 nM.
As to `CCOc1ccccc1C(=O)N1CCN(Cc2ccc(C(=O)NCCC(C)C)s2)CC1` [Example 118], the IC50 is 1.72 nM.
With `Cc1cccc(C(=O)N2CCN(Cc3ccc(C(=O)NCc4ccccc4OC(F)(F)F)s3)CC2)n1` [Example 72], the IC50 was 2.59 nM.
The figure for `O=C(NCc1ccccc1OC(F)(F)F)c1ccc(CN2CCN(C(=O)C3(O)CC3)CC2)s1` [Example 37] is 0.929 nM.
The figure for `O=C(NCc1ccc(Cl)cc1Cl)c1cnc(CN2CCN(C(=O)CN3CCC(O)C3)CC2)s1` (centres unmarked) [Example 211] is 90.9 nM.
In the case of `O=C(NCc1ccc(Cl)cc1Cl)c1ccc(CN2CCN(C(=O)Cc3ccccc3Cl)CC2)s1` [Example 69], the IC50 worked out at 2.61 nM.
Consider `NC1(C(=O)N2CCN(Cc3ncc(C(=O)NCc4ccc(Cl)cc4Cl)s3)CC2)CC1` [Example 200], for which the IC50 stood at 2.57 nM.
Consider `CC(C(=O)N1CCN(Cc2ncc(C(=O)NCc3ccc(Cl)cc3Cl)s2)CC1)N(C)C` (centres unmarked) [Example 177, 2-[4-(2-Dimethylamino-propionyl)-piperazin-1-ylmethyl]-thiazole-5-carboxylic acid 2,4-dichloro-benzylamide], for which the 50% inhibitory concentration (IC50) came out at 91.1 nM.
The figure for `NC1(C(=O)N2CCN(Cc3ccc(C(=O)NCc4ccc(Cl)cc4Cl)s3)CC2)CCOCC1` [Example 133] is 2.14 nM; for `CC(C)[C@@H](O)C(=O)N1CCN(Cc2ncc(C(=O)NCc3ccc(Cl)cc3Cl)s2)CC1` [Example 198] it is 13.3 nM.
With `O=C(NCc1ccccc1C(F)(F)F)c1ccc(CN2CCN(C(=O)c3nccc4ccccc34)CC2)s1` [Example 45], the IC50 was found to be 2.67 nM.
As for `CN1CCC(C(=O)N2CCN(Cc3ncc(C(=O)NCc4ccc(Cl)cc4Cl)s3)CC2)CC1` [Example 190], the IC50 was greater than 1000 nM.
On to `O=C(NCc1ccccc1OC(F)(F)F)c1ccc(CN2CCN(c3ccc(O)nn3)CC2)s1` [Example 136], for which the IC50 stood at 2.13 nM.
For `COc1cccc(C(=O)N2CCN(Cc3ncc(C(=O)NCc4ccc(Cl)cc4Cl)s3)CC2)n1` [Example 202], the IC50 worked out at 13.3 nM.
The figure for `O=C(NCc1ccc(Cl)cc1Cl)c1ccc(CN2CCN(C(=O)Cc3cccc(C(F)(F)F)c3)CC2)s1` [Example 100] is 2.3 nM.
On to `COc1ccc(CNC(=O)c2ccc(CN3CCN(c4ccccn4)CC3)s2)c(OC(F)(F)F)c1` [Example 124], for which the 50% inhibitory concentration (IC50) amounted to 1.69 nM.
As for `O=C(NCc1ccccc1C(F)(F)F)c1ccc(CN2CCN(C(=O)c3ccccc3F)CC2)s1` [Example 119], the concentration for half-maximal inhibition (IC50) amounted to 1.68 nM.
Turning to `COc1ccc(CNC(=O)c2ccc(CN3CCN(c4ccc(O)nn4)CC3)s2)c(OC(F)(F)F)c1` [Example 22], the IC50 is 2.8 nM.
In the case of `Cc1cc(=O)oc(C)c1C(=O)N1CCN(Cc2ccc(C(=O)NCc3ccc(C(F)(F)F)cc3)s2)CC1` [Example 33], the IC50 worked out at 0.906 nM.
As to `COc1ccc(CNC(=O)c2ccc(CN3CCn4cnnc4C3)s2)c(OC(F)(F)F)c1` [Example 104], the half-inhibitory concentration (IC50) was 2.33 nM.
In the case of `O=C(NCc1ccccc1OC(F)(F)F)c1ccc(CN2CCN(C(=O)c3ccc[nH]c3=O)CC2)s1` [Example 66], the half-maximal inhibitory concentration (IC50) was 1.25 nM.
For the compound `O=C(NCc1ccccc1OC(F)(F)F)c1ccc(CN2CCN(C(=O)C3CCOC3)CC2)s1` (centres unmarked) [Example 55], the IC50 turned out to be 1.05 nM.
`CCC(C)(O)C(=O)N1CCN(Cc2ccc(C(=O)NCc3ccccc3OC(F)(F)F)s2)CC1` (centres unmarked) [Example 95]: the IC50 was found to be 1.51 nM.
With `COC(C)(C)C(=O)N1CCN(Cc2ncc(C(=O)NCc3ccc(Cl)cc3Cl)s2)CC1` [Example 207], the IC50 was 6.31 nM.
The figure for `O=C(NCc1ccccc1OC(F)(F)F)c1ccc(CN2CCN(C3CCS(=O)(=O)C3)CC2)s1` (centres unmarked) [Example 85] is 2.44 nM; for `O=C(NCc1ccc(Cl)cc1Cl)c1ccc(CN2CCN(C(=O)c3cnn4ccccc34)CC2)s1` [Example 8] it is 0.512 nM; for `COCCOCC(=O)N1CCN(Cc2ncc(C(=O)NCc3ccc(Cl)cc3Cl)s2)CC1` [Example 188] it is 15.9 nM.
Consider `COc1ccc(CNC(=O)c2ccc(CN3CCN(CC(F)(F)F)C(=O)C3)s2)c(OC(F)(F)F)c1` [Example 56], for which the IC50 worked out at 1.01 nM.
